Active and inactive are the calls of the source. No cut-off for these calls is given here.
Assays:
Liver microsomes = experiment: Intrinsic clearance in rat liver microsomes preincubated for 5 mins before addition of NADPH measured after 30 mins by LC/MS/MS analysis; format: ADME, Microsome; conditions: 0.5 h
Succinate receptor 1 [1] = biological target: T1, Succinate receptor 1 (Rattus norvegicus, UniProt Q6IYF9); experiment: Antagonist activity at rat GPR91 receptor expressed in CHO-K1 cells co-expressing Galpha and Gqi5 G-protein assessed as inhibition of succinate-induced increase in intracellular calcium level by FLIPR assay; format: functional, cell-based
T1 sequence (Q6IYF9 whole entry): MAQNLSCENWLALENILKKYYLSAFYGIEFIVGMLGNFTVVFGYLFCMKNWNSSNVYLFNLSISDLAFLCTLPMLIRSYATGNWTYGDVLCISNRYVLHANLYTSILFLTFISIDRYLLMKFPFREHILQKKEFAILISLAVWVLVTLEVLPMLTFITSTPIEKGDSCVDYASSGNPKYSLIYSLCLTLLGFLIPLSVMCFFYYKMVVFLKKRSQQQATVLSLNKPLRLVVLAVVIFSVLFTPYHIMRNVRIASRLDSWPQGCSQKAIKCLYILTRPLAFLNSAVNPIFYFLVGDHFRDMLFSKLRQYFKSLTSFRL

[2] = biological target: 2-oxoglutarate receptor 1 (Homo sapiens, UniProt Q96P68); experiment: Antagonist activity at human GPR99 receptor expressed in CHO-K1 cells co-expressing Galpha and Gqi5 G-protein assessed as inhibition of succinate-induced increase in intracellular calcium level at by FLIPR assay; format: functional, cell-based
[3] = Cmax in Wistar rat at 5 mg/kg, iv by LC/MS/MS analysis; format: ADME, organism-based; parameters: dose 5 mg/kg, route intravenous; conditions: in vivo
[4] = Plasma clearance in Wistar rat at 5 mg/kg, iv; format: ADME, organism-based; parameters: dose 5 mg/kg, route intravenous
[5] = Volume of distribution at steady state in Wistar rat at 5 mg/kg, iv; format: ADME, organism-based; parameters: dose 5 mg/kg, route intravenous; conditions: in vivo, read-out: Vdss
[6] = Terminal half life in Wistar rat at 5 mg/kg, iv; format: ADME, organism-based; parameters: dose 5 mg/kg, route intravenous; conditions: in vivo, read-out: beta t1/2 (converted)
Succinate receptor 1 [7] = biological target: T2, Succinate receptor 1 (Homo sapiens, UniProt Q9BXA5); experiment: Antagonist activity at human GPR91 receptor expressed in CHO-K1 cells co-expressing Galpha and Gqi5 G-protein assessed as inhibition of succinate-induced increase in intracellular calcium level by FLIPR assay; format: functional, cell-based
T2 sequence (Q9BXA5 whole entry): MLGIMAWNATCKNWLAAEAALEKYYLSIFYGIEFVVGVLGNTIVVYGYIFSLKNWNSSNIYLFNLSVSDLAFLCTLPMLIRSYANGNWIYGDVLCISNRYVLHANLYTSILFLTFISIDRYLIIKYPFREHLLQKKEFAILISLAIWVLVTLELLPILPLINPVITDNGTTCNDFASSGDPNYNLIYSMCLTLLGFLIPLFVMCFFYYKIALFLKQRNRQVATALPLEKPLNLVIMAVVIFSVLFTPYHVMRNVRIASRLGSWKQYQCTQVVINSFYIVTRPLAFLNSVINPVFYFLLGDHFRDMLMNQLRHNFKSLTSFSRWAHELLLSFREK

[8] = biological target: T3, Succinate receptor 1 (Homo sapiens) (UniProt Q9BXA5); experiment: Antagonist activity at human GPR91 receptor expressed in CHO-K1 cells co-expressing Galpha and Gqi5 G-protein assessed as inhibition of succinate-induced increase in intracellular calcium level at 10 uM by FLIPR assay; format: functional, cell-based
T3 sequence (whole entry): T2 sequence (Q9BXA5 whole entry)

[9] = Cmax in Wistar rat at 30 mg/kg, po by LC/MS/MS analysis; format: ADME, organism-based; parameters: dose 30 mg/kg, route oral; conditions: in vivo
[10] = Tmax in Wistar rat at 30 mg/kg, po; format: ADME, organism-based; parameters: dose 30 mg/kg, route oral; conditions: in vivo
[11] = Plasma concentration in Wistar rat plasma at 30 mg/kg, po at 2 hrs; format: ADME, organism-based; parameters: dose 30 mg/kg, route oral
[12] = Plasma concentration in Wistar rat plasma at 30 mg/kg, po at 4 hrs; format: ADME, organism-based; parameters: dose 30 mg/kg, route oral
[13] = AUC (0 to 24 hrs) in Wistar rat plasma at 30 mg/kg, po; format: ADME, organism-based; parameters: time < 24 hr, dose 30 mg/kg, route oral
[14] = Terminal half life in Wistar rat plasma at 30 mg/kg, po; format: ADME, organism-based; parameters: dose 30 mg/kg, route oral; conditions: read-out: beta t1/2 (converted)
[15] = Oral bioavailability in Wistar rat plasma at 30 mg/kg; format: ADME, organism-based
[16] = Cmax in Wistar rat at 50 mg/kg, ip by LC/MS/MS analysis; format: ADME, organism-based; parameters: dose 50 mg/kg, route intraperitoneal; conditions: in vivo
[17] = Tmax in Wistar rat at 50 mg/kg, ip; format: ADME, organism-based; parameters: dose 50 mg/kg, route intraperitoneal; conditions: in vivo
[18] = AUC (0 to 8 hrs) in Wistar rat plasma at 50 mg/kg, ip; format: ADME, organism-based; parameters: time < 8 hr, dose 50 mg/kg, route intraperitoneal
[19] = Plasma concentration in Wistar rat plasma at 50 mg/kg, ip at 2 hrs; format: ADME, organism-based; parameters: dose 50 mg/kg, route intraperitoneal
[20] = Plasma concentration in Wistar rat plasma at 50 mg/kg, ip at 4 hrs; format: ADME, organism-based; parameters: dose 50 mg/kg, route intraperitoneal
[21] = Plasma concentration in Wistar rat plasma at 50 mg/kg, ip at 8 hrs; format: ADME, organism-based; parameters: dose 50 mg/kg, route intraperitoneal
B1 bradykinin receptor = biological target: T4, B1 bradykinin receptor (Homo sapiens, UniProt P46663); experiment: Antagonist activity at human bradykinin B1 receptor expressed in […] cells assessed as inhibition of calcium flux by FLIPR assay; format: functional, cell-based
T4 sequence (P46663 whole entry): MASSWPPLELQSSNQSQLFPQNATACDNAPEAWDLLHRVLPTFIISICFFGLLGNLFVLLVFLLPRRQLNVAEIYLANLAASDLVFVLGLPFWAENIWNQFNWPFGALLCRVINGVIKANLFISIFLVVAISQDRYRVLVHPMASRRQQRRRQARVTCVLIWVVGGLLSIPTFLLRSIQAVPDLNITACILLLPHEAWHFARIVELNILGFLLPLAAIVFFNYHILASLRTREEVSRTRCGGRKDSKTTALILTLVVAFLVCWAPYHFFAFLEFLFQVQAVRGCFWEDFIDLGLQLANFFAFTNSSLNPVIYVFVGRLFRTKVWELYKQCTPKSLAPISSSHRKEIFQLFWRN

2-oxoglutarate receptor 1, sequence (Q96P68 whole entry, looked up): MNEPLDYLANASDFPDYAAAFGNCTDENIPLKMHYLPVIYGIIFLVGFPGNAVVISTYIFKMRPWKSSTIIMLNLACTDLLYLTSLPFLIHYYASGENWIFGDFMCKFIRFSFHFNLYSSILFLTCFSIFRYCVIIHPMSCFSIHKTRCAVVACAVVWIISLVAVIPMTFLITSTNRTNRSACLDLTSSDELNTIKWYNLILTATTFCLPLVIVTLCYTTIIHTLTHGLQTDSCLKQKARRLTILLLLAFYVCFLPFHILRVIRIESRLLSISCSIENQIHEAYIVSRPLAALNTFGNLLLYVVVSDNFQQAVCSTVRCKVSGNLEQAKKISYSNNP

Intrinsic clearance (Liver microsomes) [nmol/min/mg] | IC50 (Succinate receptor 1 [1]) [nM] | IC50 [2] [nM] | Cmax [3] [µM] | clearance [4] [mL/min/kg] | Vd [5] [L/kg] | half-life [6] [h] | IC50 (Succinate receptor 1 [7]) [nM] | inhibition [8] | SMILES | other results
0.42 | 100 | 2000 | 19 | 14.8 | 0.7 | 0.8 | 11 | – | C[C@H](NC(=O)CCCc1ccc2cccnc2n1)c1ccc(-c2cccc(Cl)c2)cc1 | –
0.1 | – | – | – | – | – | – | – | inactive | O=C(CCCc1ccc2cccnc2n1)NCc1ccc(-c2cccc(CO)c2)cc1 | –
0.22 | 115 | 7000 | 82.7 | 4.4 | 0.2 | 1.2 | 40 | – | O=C(CCCc1ccc2cccnc2n1)NCc1ccc(-c2cccc(Cl)c2)cc1 | Cmax [16]: 17.8 µM; Tmax [17]: 3.3 h; AUC(0-t) at 8 h [18]: 119 µM·h; concentration at 8 h [21]: 15 µM
0.1 | – | – | – | – | – | – | – | inactive | CS(=O)(=O)c1cccc(-c2ccc(CNC(=O)CCCc3ccc4cccnc4n3)cc2)c1 | –

Further lines, the compound ahead of its results:

SMILES | Intrinsic clearance (Liver microsomes) [nmol/min/mg] | IC50 (Succinate receptor 1 [1]) [nM] | IC50 [2] [nM] | Cmax [3] [µM] | clearance [4] [mL/min/kg] | Vd [5] [L/kg] | half-life [6] [h] | IC50 (Succinate receptor 1 [7]) [nM] | inhibition [8] | other results
O=C(NCc1ccc(-c2ccccc2)cc1)c1ccc(-c2ccc3cccnc3n2)cc1 | 0.02 | – | – | – | – | – | – | – | inactive | –
O=C(CCCc1ccc2cccnc2n1)NCc1ccc(-c2cccc(C(=O)O)c2)cc1 | 0.03 | – | – | – | – | – | – | – | inactive | –
FC(F)(F)Oc1ccc(-c2nnc(CCCCc3ccc4cccnc4n3)o2)cc1Cl | 0.17 | – | > 20000 | 56 | 2 | 0.2 | 1.3 | 180 | – | Cmax [9]: 72 µM; Tmax [10]: 1.5 h; concentration at 2 h [11]: 70 µM; concentration at 4 h [12]: 40.5 µM; AUC(0-t) at 24 h [13]: 472 µM·h; half-life [14]: 3.4 h; bioavailability [15]: 87%
O=C(CCCc1ccc2cccnc2n1)NCc1cc(-c2ccc(F)c(C(F)(F)F)c2)no1 | 0.12 | 135 | > 30000 | 40 | 4.7 | 0.36 | 1.1 | 35 | – | Cmax [16]: 22 µM; Tmax [17]: 2 h; AUC(0-t) at 8 h [18]: 267 µM·h; concentration at 2 h [19]: 22 µM; concentration at 4 h [20]: 19 µM; concentration at 8 h [21]: 19 µM; Cmax [9]: 37 µM; Tmax [10]: 0.5 h; concentration at 2 h [11]: 11.3 µM; concentration at 4 h [12]: 2.6 µM; AUC(0-t) at 24 h [13]: 69 µM·h; half-life [14]: 0.9 h; bioavailability [15]: 26%
Clc1cccc(-c2ccc(-c3nnc(CCCc4ccc5cccnc5n4)o3)cc2)c1 | 0.3 | 67 | 5000 | 9.3 | 51 | 1.9 | 0.9 | 40 | – | –
COC(=O)c1c(F)cccc1-c1ccc(CNC(=O)CCCc2ccc3cccnc3n2)c(F)c1 | 0.7 | – | – | – | – | – | – | 800 | – | IC50 (B1 bradykinin receptor): 2500 nM
CCOC(=O)c1cccc(-c2ccc(CNC(=O)CCCc3ccc4cccnc4n3)cc2)c1 | – | – | – | – | – | – | – | – | inactive | –
FC(F)(F)c1cc(-c2nnc(CCCCc3ccc4cccnc4n3)o2)ccc1Cl | 0.3 | 435 | > 30000 | 92 | 4.8 | 0.1 | 0.3 | 160 | – | Cmax [16]: 21 µM; Tmax [17]: 2.7 h; AUC(0-t) at 8 h [18]: 304 µM·h; concentration at 2 h [19]: 19 µM; concentration at 4 h [20]: 20 µM; concentration at 8 h [21]: 15 µM
NC(=O)c1cccc(-c2ccc(CNC(=O)CCCc3ccc4cccnc4n3)cc2)c1 | 0.04 | – | – | – | – | – | – | – | inactive | –

Reference: ChEMBL document CHEMBL2150920, “Discovery of a potent and selective small molecule hGPR91 antagonist” (Bioorg Med Chem Lett, 2011)
